In ChEMBL document CHEMBL1134300, “Oxindole-based inhibitors of cyclin-dependent kinase 2 (CDK2): design, synthesis, enzymatic activities, and X-ray crystallographic analysis” (J Med Chem, 2001):

Assays:
[1] = target: Cyclin-dependent kinase 2 (Homo sapiens, UniProt P24941)
Description: Inhibitory activity against human cyclin-dependent kinase 2 (CDK2)

[2] = target: Cyclin-dependent kinase 1 (Homo sapiens, UniProt P06493)
Sequence of Cyclin-dependent kinase 1 (P06493 whole entry): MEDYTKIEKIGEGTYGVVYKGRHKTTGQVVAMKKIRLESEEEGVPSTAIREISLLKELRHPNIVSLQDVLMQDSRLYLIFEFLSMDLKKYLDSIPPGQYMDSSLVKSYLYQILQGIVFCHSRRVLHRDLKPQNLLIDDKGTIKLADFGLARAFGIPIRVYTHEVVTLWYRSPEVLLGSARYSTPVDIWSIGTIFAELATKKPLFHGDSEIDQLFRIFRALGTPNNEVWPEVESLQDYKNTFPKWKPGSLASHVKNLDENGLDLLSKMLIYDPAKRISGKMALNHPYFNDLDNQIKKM
Description: Inhibitory activity against human cyclin-dependent kinase 1 (CDK1)

Structure (SMILES) | IC50 [1] [nM] | IC50 [2] [nM]
CC(C)COC(=O)c1ccc2c(c1)/C(=C/Nc1ccc(S(N)(=O)=O)cc1)C(=O)N2 [GW416981X] | 3 | 19
O=C1Nc2ccc3ncsc3c2/C1=C/Nc1ccc(S(=O)(=O)NCc2ccccc2)cc1 | 5.6 | 52
Cc1cc(Cl)cc2c1NC(=O)/C2=C\Nc1ccc(S(N)(=O)=O)cc1 | > 10000 | > 10000
NS(=O)(=O)c1ccc(N/N=C2\C(=O)Nc3ccccc32)cc1 | 120 | 1300
CCOc1cccc2c1C(=NNc1ccc(S(N)(=O)=O)cc1)C(=O)N2 | 93 | 550
CCOC(=O)c1cccc2c1/C(=C/Nc1ccc(S(N)(=O)=O)cc1)C(=O)N2 | 8.9 | 130
NS(=O)(=O)c1ccc(NN=C2C(=O)Nc3cc(Oc4ccccc4)ccc32)cc1 | > 10000 | > 10000
CNS(=O)(=O)c1ccc(N/C=C2\C(=O)Nc3ccc4ncsc4c32)cc1 | 5.6 | 64
